Experimental data: publication PMC5141248 (Biochemistry, 2016)

Molecular target: human CP4H1 (Homo sapiens, UniProt P13674)
Assay: UPLC peptide hydroxylation assay
Format: biochemical
Conditions: turnover; cosubstrate 0.1-10 mM, dansylGlyProProGlyOEt 500 μM, Fe(II) 50 μM, ascorbate 2 mM, pH 7.8, 30 °C

human CP4H1, sequence (P13674 18-534): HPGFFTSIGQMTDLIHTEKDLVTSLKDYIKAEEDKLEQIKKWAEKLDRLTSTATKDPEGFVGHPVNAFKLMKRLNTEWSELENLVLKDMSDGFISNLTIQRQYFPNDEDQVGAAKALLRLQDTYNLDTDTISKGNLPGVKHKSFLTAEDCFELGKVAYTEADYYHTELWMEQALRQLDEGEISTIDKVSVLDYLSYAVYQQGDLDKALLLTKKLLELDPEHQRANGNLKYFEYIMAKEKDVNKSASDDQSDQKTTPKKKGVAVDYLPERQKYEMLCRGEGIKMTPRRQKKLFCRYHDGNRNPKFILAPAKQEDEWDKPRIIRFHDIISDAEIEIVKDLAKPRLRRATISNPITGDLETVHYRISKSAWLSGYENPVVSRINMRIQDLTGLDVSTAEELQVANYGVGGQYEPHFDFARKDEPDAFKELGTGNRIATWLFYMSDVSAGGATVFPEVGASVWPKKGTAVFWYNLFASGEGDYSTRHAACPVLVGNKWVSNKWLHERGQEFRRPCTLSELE
human CP4H1, sequence (P07237 18-508 partner): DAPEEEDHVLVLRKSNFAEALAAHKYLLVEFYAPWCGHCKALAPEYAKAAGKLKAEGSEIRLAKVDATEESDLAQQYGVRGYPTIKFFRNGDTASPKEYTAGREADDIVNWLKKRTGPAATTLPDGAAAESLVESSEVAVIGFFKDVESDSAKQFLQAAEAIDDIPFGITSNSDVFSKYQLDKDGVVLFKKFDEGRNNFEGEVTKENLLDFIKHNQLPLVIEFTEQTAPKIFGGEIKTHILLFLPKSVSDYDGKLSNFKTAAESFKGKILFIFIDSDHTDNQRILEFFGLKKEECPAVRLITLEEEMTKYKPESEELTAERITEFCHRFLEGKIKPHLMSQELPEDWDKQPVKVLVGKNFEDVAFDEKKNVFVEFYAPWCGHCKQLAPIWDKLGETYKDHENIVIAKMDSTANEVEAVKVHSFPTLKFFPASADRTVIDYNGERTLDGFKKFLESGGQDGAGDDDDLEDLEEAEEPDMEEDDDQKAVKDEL

`O=C(O)CCC(=O)C(=O)O` [α-ketoglutarate] was tested, and the “UPLC peptide hydroxylation assay” value was “the reaction was initiated by the addition of α-ketoglutarate”.
